#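 Test compounds were applied to cells in 96-well plates for 48 hours at 5 doses. At the TGI there is no net growth.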
# Experiments:
# Experiment in all cases: NCI anticancer screen, dose series, 48 h
# CAKI-1 renal = test system: CAKI-1 renal
# EKVX NSCLC = test system: EKVX NSCLC
# MDA-MB-231 breast = test system: MDA-MB-231 breast
# HCC-2998 colon = test system: HCC-2998 colon
# NCI/ADR-RES ovarian = test system: NCI/ADR-RES ovarian
# MALME-3M melanoma = test system: MALME-3M melanoma
# M14 melanoma = test system: M14 melanoma
# SW-620 colon = test system: SW-620 colon
# NCI-H522 lung = test system: NCI-H522 lung
# KM12 colon = test system: KM12 colon
# MDA-MB-435 = test system: MDA-MB-435
# UACC-62 melanoma = test system: UACC-62 melanoma
# T-47D breast = test system: T-47D breast
# HOP-92 NSCLC = test system: HOP-92 NSCLC
# OVCAR-3 ovarian = test system: OVCAR-3 ovarian
# A498 renal = test system: A498 renal
# HT29 colon = test system: HT29 colon
# IGROV1 ovarian = test system: IGROV1 ovarian
# K-562 leukemia = test system: K-562 leukemia
# TK-10 renal = test system: TK-10 renal
# SNB-75 CNS = test system: SNB-75 CNS
# U251 CNS = test system: U251 CNS
# DU-145 prostate = test system: DU-145 prostate
# PC-3 prostate = test system: PC-3 prostate
# UO-31 renal = test system: UO-31 renal
# CCRF-CEM leukemia = test system: CCRF-CEM leukemia
# SK-MEL-5 melanoma = test system: SK-MEL-5 melanoma
# SNB-19 CNS = test system: SNB-19 CNS
# OVCAR-8 ovarian = test system: OVCAR-8 ovarian
# HOP-62 NSCLC = test system: HOP-62 NSCLC
# UACC-257 melanoma = test system: UACC-257 melanoma
# OVCAR-4 ovarian = test system: OVCAR-4 ovarian
# NCI-H226 lung = test system: NCI-H226 lung
# NCI-H460 lung = test system: NCI-H460 lung
# BT-549 breast = test system: BT-549 breast
# RPMI-8226 leukemia = test system: RPMI-8226 leukemia
# LOX IMVI melanoma = test system: LOX IMVI melanoma
# SK-MEL-2 melanoma = test system: SK-MEL-2 melanoma
# SK-OV-3 ovarian = test system: SK-OV-3 ovarian
# SN12C renal = test system: SN12C renal
# A549 NSCLC = test system: A549 NSCLC
# MDA-N = test system: MDA-N
# HCT-116 colon = test system: HCT-116 colon
# SR leukemia = test system: SR leukemia
# RXF 393 renal = test system: RXF 393 renal
# OVCAR-5 ovarian = test system: OVCAR-5 ovarian
# ACHN renal = test system: ACHN renal
# SF-295 CNS = test system: SF-295 CNS
# NCI-H23 lung = test system: NCI-H23 lung
# HS 578T breast = test system: HS 578T breast
# COLO 205 colon = test system: COLO 205 colon
# MOLT-4 leukemia = test system: MOLT-4 leukemia
# SK-MEL-28 melanoma = test system: SK-MEL-28 melanoma
# HL-60(TB) leukemia = test system: HL-60(TB) leukemia
# HCT-15 colon = test system: HCT-15 colon
# SF-539 CNS = test system: SF-539 CNS
# MCF7 breast = test system: MCF7 breast
# SF-268 CNS = test system: SF-268 CNS
# 786-0 renal = test system: 786-0 renal
smiles,measurement,setting,value
COC1=C(C)C(=O)c2c(c(COC(N)=O)c3n2CC(OC(C)=O)C3OC(C)=O)C1=O (stereo not drawn),TGI,CAKI-1 renal,< 0.0278 µM
same,TGI,EKVX NSCLC,678 nM
same,TGI,MDA-MB-231 breast,0.515 µM
same,TGI,HCC-2998 colon,262 nM
same,TGI,NCI/ADR-RES ovarian,0.979 µM
same,TGI,MALME-3M melanoma,156 nM
same,TGI,M14 melanoma,0.514 µM
same,TGI,SW-620 colon,0.166 µM
same,TGI,NCI-H522 lung,0.0379 µM
same,TGI,KM12 colon,0.939 µM
same,TGI,MDA-MB-435,0.415 µM
same,TGI,UACC-62 melanoma,245 nM
same,TGI,T-47D breast,3.11 µM
same,TGI,HOP-92 NSCLC,540 nM
same,TGI,OVCAR-3 ovarian,0.416 µM
same,TGI,A498 renal,1340 nM
same,TGI,HT29 colon,0.25 µM
same,TGI,IGROV1 ovarian,402 nM
same,TGI,K-562 leukemia,> 100 µM
same,TGI,TK-10 renal,1.56 µM
same,TGI,SNB-75 CNS,1.09 µM
same,TGI,U251 CNS,0.789 µM
same,TGI,DU-145 prostate,265 nM
same,TGI,PC-3 prostate,0.402 µM
same,TGI,UO-31 renal,490 nM
same,TGI,CCRF-CEM leukemia,13.8 µM
same,TGI,SK-MEL-5 melanoma,0.392 µM
same,TGI,SNB-19 CNS,2090 nM
same,TGI,OVCAR-8 ovarian,373 nM
same,TGI,HOP-62 NSCLC,563 nM
same,TGI,UACC-257 melanoma,0.375 µM
same,TGI,OVCAR-4 ovarian,1.03 µM
same,TGI,NCI-H226 lung,1390 nM
same,TGI,NCI-H460 lung,0.235 µM
same,TGI,BT-549 breast,1.21 µM
same,TGI,RPMI-8226 leukemia,1.36 µM
same,TGI,LOX IMVI melanoma,1060 nM
same,TGI,SK-MEL-2 melanoma,0.387 µM
same,TGI,SK-OV-3 ovarian,1570 nM
same,TGI,SN12C renal,1.09 µM
same,TGI,A549 NSCLC,1600 nM
same,TGI,MDA-N,290 nM
same,TGI,HCT-116 colon,0.129 µM
same,TGI,SR leukemia,0.0442 µM
same,TGI,RXF 393 renal,0.428 µM
same,TGI,OVCAR-5 ovarian,652 nM
same,TGI,ACHN renal,1030 nM
same,TGI,SF-295 CNS,657 nM
same,TGI,NCI-H23 lung,250 nM
same,TGI,HS 578T breast,1090 nM
same,TGI,COLO 205 colon,0.314 µM
same,TGI,MOLT-4 leukemia,2030 nM
same,TGI,SK-MEL-28 melanoma,816 nM
same,TGI,HL-60(TB) leukemia,0.202 µM
same,TGI,HCT-15 colon,0.0692 µM
same,TGI,SF-539 CNS,0.165 µM
same,TGI,MCF7 breast,1230 nM
same,TGI,SF-268 CNS,674 nM
same,TGI,786-0 renal,0.0581 µM
CC(C)(C)c1cc(C(=O)/C=C/c2ccc3c(c2)OCO3)cc(C(C)(C)C)c1O,TGI,CAKI-1 renal,> 100 µM
same,TGI,EKVX NSCLC,> 100000 nM
same,TGI,MDA-MB-231 breast,37.7 µM
same,TGI,HCC-2998 colon,3740 nM
same,TGI,NCI/ADR-RES ovarian,16.8 µM
same,TGI,MALME-3M melanoma,> 53400 nM
same,TGI,M14 melanoma,65.3 µM
same,TGI,SW-620 colon,35.8 µM
same,TGI,NCI-H522 lung,66 µM
same,TGI,KM12 colon,22.7 µM
same,TGI,MDA-MB-435,7.04 µM
same,TGI,UACC-62 melanoma,> 45500 nM
same,TGI,T-47D breast,23.8 µM
same,TGI,HOP-92 NSCLC,> 100000 nM
same,TGI,OVCAR-3 ovarian,23 µM
same,TGI,A498 renal,> 56400 nM
same,TGI,HT29 colon,28 µM
same,TGI,IGROV1 ovarian,> 100000 nM
same,TGI,K-562 leukemia,> 39.1 µM
same,TGI,TK-10 renal,58.1 µM
same,TGI,SNB-75 CNS,15.4 µM
same,TGI,U251 CNS,19.3 µM
same,TGI,DU-145 prostate,> 58000 nM
same,TGI,PC-3 prostate,21.8 µM
same,TGI,UO-31 renal,> 81000 nM
same,TGI,CCRF-CEM leukemia,16.3 µM
same,TGI,SK-MEL-5 melanoma,16.6 µM
same,TGI,SNB-19 CNS,> 70200 nM
same,TGI,OVCAR-8 ovarian,> 100000 nM
same,TGI,HOP-62 NSCLC,> 100000 nM
same,TGI,UACC-257 melanoma,22.1 µM
same,TGI,OVCAR-4 ovarian,78.7 µM
same,TGI,NCI-H226 lung,> 80600 nM
same,TGI,NCI-H460 lung,15.7 µM
same,TGI,BT-549 breast,27.2 µM
same,TGI,RPMI-8226 leukemia,16.9 µM
same,TGI,LOX IMVI melanoma,> 55800 nM
same,TGI,SK-MEL-2 melanoma,10.4 µM
same,TGI,SK-OV-3 ovarian,> 100000 nM
same,TGI,SN12C renal,76.4 µM
same,TGI,A549 NSCLC,> 86600 nM
same,TGI,MDA-N,5530 nM
same,TGI,HCT-116 colon,24.5 µM
same,TGI,SR leukemia,10 µM
same,TGI,RXF 393 renal,7.58 µM
same,TGI,OVCAR-5 ovarian,> 76900 nM
same,TGI,ACHN renal,> 100000 nM
same,TGI,SF-295 CNS,> 31200 nM
same,TGI,NCI-H23 lung,> 86400 nM
same,TGI,HS 578T breast,> 27100 nM
same,TGI,COLO 205 colon,13.2 µM
same,TGI,MOLT-4 leukemia,> 26600 nM
same,TGI,SK-MEL-28 melanoma,> 100000 nM
same,TGI,HL-60(TB) leukemia,13.9 µM
same,TGI,HCT-15 colon,33.9 µM
same,TGI,SF-539 CNS,20 µM
same,TGI,MCF7 breast,> 100000 nM
same,TGI,SF-268 CNS,> 41600 nM
same,TGI,786-0 renal,21 µM

# From PubChem BioAssay (NCI)
